# Reference: article PMC13249423, “Capsaicin acts as a novel NRF2 agonist to suppress ethanol induced gastric mucosa oxidative damage by directly disrupting the KEAP1-NRF2 interaction” (eLife, 2026)
# Assays:
# KEAP1 (Kelch domain, WT) = target: T1, KEAP1 (Kelch domain, WT) (Homo sapiens, UniProt Q14145); assay: BLI with purified biotinylated Kelch (also HDX-MS, CETSA in GES-1 cells, pull-down and SPR disruption of KEAP1-NRF2); assay type: binding
# T1 construct: Kelch domain of KEAP1 (Lys312-Cys624)
# [1] = target: T2, KEAP1 (mutant Kelch domain) (Homo sapiens, UniProt Q14145, N382A/N414A/R380A/R415A/S602A/Y334A/Y572A); assay: BLI with purified biotinylated mutant Kelch; assay type: binding
# T2 construct: Kelch domain of KEAP1 (Lys312-Cys624)
# T2 sequence (Q14145 312-624 Y334A/R380A/N382A/N414A/R415A/Y572A/S602A): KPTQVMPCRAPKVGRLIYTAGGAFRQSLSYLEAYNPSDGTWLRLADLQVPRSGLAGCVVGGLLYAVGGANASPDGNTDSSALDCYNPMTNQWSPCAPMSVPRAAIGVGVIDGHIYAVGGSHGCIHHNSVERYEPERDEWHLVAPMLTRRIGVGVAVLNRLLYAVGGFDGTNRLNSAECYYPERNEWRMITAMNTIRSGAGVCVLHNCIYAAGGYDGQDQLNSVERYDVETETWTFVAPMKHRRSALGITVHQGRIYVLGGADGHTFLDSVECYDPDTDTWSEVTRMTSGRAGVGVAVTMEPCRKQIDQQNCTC
# T1 sequence (Q14145 312-624): as the sequence (Q14145 312-624 Y334A/R380A/N382A/N414A/R415A/Y572A/S602A) above, with A23Y, A69R, A71N, A103N, A104R, A261Y, A291S counted along it
compound,measurement,setting,value
"COc1cc(CNC(=O)CCCC/C=C/C(C)C)ccc1O [CAP, capsaicin]",Kd,"KEAP1 (Kelch domain, WT)",31.5 µM
same,Kd,[1],102 µM
